Patent US12359188B2, “Method for producing therapeutic exosomes from nanoelectroporation and other non-endocytic cell transfection” (Ohio State Innovation Foundation, priority 2017, dated 2025)

Test system: NEP transfected MEF cells
Experiment: Effect of HSP70/HSP90 inhibitors on EV secretion from NEP transfected MEF cells (DLS goniometry)
Assay type: cell-based, mouse
Conditions: medium collected 24 h post-transfection
Description: After NEP transfection, the cell culture was replaced with fresh medium containing HSP70 inhibitor (VER 155008, 50 μM), HSP90 inhibitor (NVP-HSP990, 1 μM), or their mixture. Medium was collected at 24 h post-transfection, and EV numbers were detected by dynamic light scattering (DLS) goniometry;
During electroporation, Joule heating caused by the imposed electric field could tentatively increase the cell temperature to cause thermal shocking to the transfected cells. It is known that thermal shocking may increase cell secretion of EVs due to chaperone mediated autophage caused by the increase of heat shock proteins in cells (8-10). […] When HSP inhibitors were added in cell culture medium after electroporation, EV secretion could be suppressed. […] Here, the cell culture was replaced with fresh medium containing HSP70 inhibitor (VER 155008), HSP90 inhibitor (NVP-HSP990), or their mixture right after NEP transfection. Medium was collected at 24 h post-transfection and EV numbers were detected by dynamic light scattering (DLS) goniometry.

Compound: COc1cccc(-c2cc(F)ccc2[C@H]2Cc3nc(N)nc(C)c3C(=O)N2)n1 [NVP-HSP990]
- decrease of EV secretion (HSP90 inhibitor 1 μM in fresh medium right after NEP transfection): 40%

Compound: N#Cc1ccc(COC[C@H]2O[C@@H](n3c(NCc4ccc(Cl)c(Cl)c4)nc4c(N)ncnc43)[C@H](O)[C@@H]2O)cc1 [VER 155008]
- decrease of EV secretion (HSP70 inhibitor 50 μM in fresh medium right after NEP transfection): 50%
